This passage reports IC50 results from patent US20120107323A1, “KINASE PROTEIN BINDING INHIBITORS” (University of Florida, priority 2009, published 2012).

The test system of assay [1] is BT474 breast cancer cells. In words: Cell viability (MTT), BT474. The following applies: Homo sapiens, BT-474; BT474, 72 hours; read-out: IC50 of INT2-31, cell viability. The format is cell-based. The procedure:
Cell viability (MTT) and CFSE Proliferation assay: Cells were plated in 96-well plates and let adhere overnight. After cell treatment, cell viability was measured by 3-(4,5-dimethylthiazol-2-yl)-2,5-diphenyl tetrazolium bromide (MTT) assay (CellTiter 96® Aqueous, Promega, Madison, Wis.).
Cell viability and detachment assays: After cells were treated with siRNA transfection, cell viability was measured by 3-(4,5-dimethylthiazol2-yl)-2,5-diphenyl tetrazolium bromide (MTT) assay (CellTiter 96® AQueous, Promega, Madison, Wis.). Briefly, 20 μl of the tetrazolium compound was added to each well. The cells were then incubated at 37° C. for 1 h. The plate was read at 490 nm with a plate reader to determine the viability. In detachment assays, detached and attached cells were harvested separately and counted in a hemocytometer. The percentage of detachment was calculated by dividing the number of detached cells by the total number of cells. Apoptosis assays: After treatment, attached and detached cells were collected, counted and prepared for terminal uridine deoxynucleotidyl transferase (TUNEL) assay by utilizing an APO-BRDU kit (BD Pharmingen, San Diego, Calif.) according to the manufacturer's instructions. Stained cells were analyzed with a fluorescence-activated cell sorting-Calibur flow cytometer (BD Biosciences). […] Apoptotic cells were also analyzed by Hoechst staining. […]

Another assay has as its target T1, FAK and IGF-1R (Homo sapiens, UniProt Q05397).
T1 construct: endogenous in cells; host or cells: C8161 (A2) and A375 (A3) melanoma cells
In words: Coimmunoprecipitation of FAK and IGF-1R in A375 melanoma cells. The format is cell-based. The following applies: average IC50, A375 cells, immunoprecipitation with antibody against FAK; read-out: IC50, disruption of FAK/IGF-1R binding. The text has this:
Computational Docking The crystal structures of the N-terminal domain of FAK (PDB code 2AL6) (22) and the kinase domain of IGF-1R(PDB 1P40A) (23) were utilized for in silico molecular modeling of their interaction as previously described. The three-dimensional coordinates of compound NSC344553 (INT2-31), obtained from the database of the National Cancer Institute, Developmental Therapeutics Program (NCI/DTP), were docked onto the predicted interface of the amino-terminus of FAK (amino acids 127-243) with the intracytoplasmic portion of IGF-1R (21). […] 100 orientations were created for NSC344553 in the target site and were scored using the computer program grid-based scoring function. […] The intermolecular energies for all configurations of NSC 344553 in binding to FAK-NT2 were calculated as the sum of electrostatic and van der Waals energies. These energy terms were evaluated as correlation functions, which were computed efficiently with Fast Fourier Transforms. […] Bound proteins were boiled in 6× Laemmli buffer and analyzed by SDS-PAGE and Western blotting. […] The intensity of the bands in the western blots was measured with scion image analysis software program. […]

Each structure is given as a SMILES string.

T1 sequence (Q05397 2-1052 limits assumed): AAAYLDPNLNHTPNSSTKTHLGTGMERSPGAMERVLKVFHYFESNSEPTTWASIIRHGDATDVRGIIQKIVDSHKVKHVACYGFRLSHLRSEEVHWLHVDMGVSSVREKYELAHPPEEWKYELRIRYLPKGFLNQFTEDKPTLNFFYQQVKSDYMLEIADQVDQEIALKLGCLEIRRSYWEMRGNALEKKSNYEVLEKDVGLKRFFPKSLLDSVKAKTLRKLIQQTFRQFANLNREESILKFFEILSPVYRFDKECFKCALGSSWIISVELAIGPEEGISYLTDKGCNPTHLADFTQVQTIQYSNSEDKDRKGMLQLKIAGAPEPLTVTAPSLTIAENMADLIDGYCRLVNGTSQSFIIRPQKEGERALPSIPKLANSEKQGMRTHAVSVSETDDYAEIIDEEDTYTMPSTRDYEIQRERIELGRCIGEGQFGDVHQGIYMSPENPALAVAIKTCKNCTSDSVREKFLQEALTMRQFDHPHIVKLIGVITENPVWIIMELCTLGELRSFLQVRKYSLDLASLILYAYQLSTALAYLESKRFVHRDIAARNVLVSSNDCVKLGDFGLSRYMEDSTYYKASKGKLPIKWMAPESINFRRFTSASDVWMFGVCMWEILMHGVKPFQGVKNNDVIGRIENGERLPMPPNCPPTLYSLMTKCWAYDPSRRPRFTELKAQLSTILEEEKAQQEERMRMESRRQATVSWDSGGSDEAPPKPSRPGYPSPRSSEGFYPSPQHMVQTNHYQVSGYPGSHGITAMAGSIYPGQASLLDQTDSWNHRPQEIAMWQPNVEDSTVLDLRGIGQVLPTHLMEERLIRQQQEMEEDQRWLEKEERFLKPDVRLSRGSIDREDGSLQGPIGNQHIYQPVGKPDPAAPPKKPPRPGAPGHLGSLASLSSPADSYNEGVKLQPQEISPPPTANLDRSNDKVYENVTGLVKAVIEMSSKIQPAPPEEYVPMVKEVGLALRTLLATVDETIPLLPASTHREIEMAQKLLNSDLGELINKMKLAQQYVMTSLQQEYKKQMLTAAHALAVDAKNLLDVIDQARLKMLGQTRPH

Consider `CSc1ncnc2c1ccn2C1O[C@H](COP(=O)(O)O)[C@@H](O)[C@H]1O` (stereo partly drawn) [INT2-31, 4-(Methylthio)-7-(5-O-phosphono-D-ribofuranosyl)-{7H-Pyrrolo[2,3-d]pyrimidine}], for which the IC50 in assay [1] came out at 2390 nM; at FAK and IGF-1R it was 3170 nM.
